The values below come from patent US20060079479A1, “Methods of inducing vasodilation” (priority 2004, published 2006).

The conditions of data set [1]: uptake by nucleoside transporter in red blood cells; cited from earlier work.
The conditions of data set [2]: in pharmaceutically acceptable carriers; cited from earlier work.
For the next data set, the system named is human subjects. Description: Forearm blood flow (FBF) after infusion into forearm arteries of human subjects. Type of data set: in vivo. The settings on record: for forearm blood flow (FBF) before infusion (baseline): baseline value before forearm artery infusion; for forearm blood flow (vasodilation) at calculated equimolar concentrations: forearm artery infusion, calculated equimolar 1 μmol/min. The method, then:
Blood pressure, heart rate, and respiration were continuously monitored throughout the administration. A physician was present throughout the study and monitored for side effects. At the end of each infusion period, the forearm blood flow (FBF) of each subject was then measured by standard techniques.
A physician was present, and the subject was monitored throughout the infusion, as in Example 1.

Setting [3] is: forearm artery infusion 0.125 mg/min for 15 minutes.

For the compound `Nc1ncnc2c1ncn2[C@@H]1O[C@H](CO)[C@@H](O)[C@H]1O` [adenosine, reference compound], the half-life in blood entry in data set [1] is “less than 1 second”. Besides, the limit of solubility result in data set [2] is given as “approximately 5 mg/ml”. Further, in the data set with human subjects, the “forearm blood flow (FBF) before infusion (baseline)” value is given as 3.1±0.2 ml/100 ml/min and the “forearm blood flow (vasodilation) at calculated equimolar concentrations” value is 15.6±1.9 ml/100 ml/min. Moreover, the “forearm blood flow (FBF) at end of infusion” value in the data set on human subjects (setting [3]) was determined as 14.2±2.0 ml/100 ml/min.

With `Nc1ncnc2c1ncn2[C@@H]1O[C@H](COP(=O)(O)O)[C@@H](O)[C@H]1O` [AMP, Adenosine 5′-monophosphate], the limit of solubility result in data set [2] is “approximately 400 mg/ml”. In addition, the “vasodilation compared with adenosine at calculated equimolar concentrations” value in the data set on human subjects (1 μmol/min, p<0.02) was “significantly greater vasodilation”. Moreover, in the data set with human subjects, the “forearm blood flow (FBF) before infusion (baseline)” value turned out to be 3.8±0.5 ml/100 ml/min and the “forearm blood flow (vasodilation) at calculated equimolar concentrations” value is on record as 19.4±1.8 ml/100 ml/min. In addition, the “forearm blood flow (FBF) at end of infusion” value in the data set on human subjects (setting [3]) is given as 16.3±1.6 ml/100 ml/min. Besides, the “forearm blood flow (FBF) at end of infusion” value in the data set with human subjects (forearm artery infusion 0.5 mg/min for 15 minutes) came to 20.7±1.8 ml/100 ml/min.
